Assay results as given in patent publication US12421226B2, “Heteroaryl compounds as necrosis inhibitors, composition and method using the same” (Accro Bioscience (HK), priority 2019, dated 2025).
Where a name gives a salt, the structure may show the parent alone.

The compounds below were run on HT29 cells (assay: Necroptosis inhibition in HT29 cell assay (TNF-α/Smac mimetic/z-VAD induced, cell viability)). Details: Homo sapiens, HT-29, 1 h pre-treatment with compound, then TNF-α 40 ng/mL + Smac mimetic 100 nM + z-VAD 20 μM for 48 hours.
Type: cell-based
Method: 1. Compounds Tested for Necroptosis Inhibition Activities in HT29 Cell Assay
(§1) For this assay, HT29 cells were added to 96-well plates and then were pre-treated with 10 μM of the test compound for one hour. Then the cells were treated with tumor necrosis factor alpha (TNF-α, 40 ng/mL), Smacmimetic (cIAP inhibitor) (100 nM) and z-VAD (capase inhibitor, from calbiochem) (20 μM) for 48 hours, and the viability of cells was quantified. DMSO pretreatment group was used as negative controls, Nec-1 (known necroptosis inhibitor, from Biomol) pretreatment group was used as positive controls.

Compound	IC50
O=C(NC1CCCCC1)c1csc2ncc(-c3ccc4nc(NC(=O)C5CC5)sc4c3)cc12 [Compound C18, N-cyclohexyl-5-[2-(cyclopropanecarbonylamino)-1,3-benzothiazol-6-yl]thieno[2,3-b]pyridine-3-carboxamide]	1 nM
CCOC(=O)Nc1nc2ccc(-c3cnc4snc(C(=O)NC5CCCCC5)c4c3)cc2s1 [Compound C29, ethyl N-[6-[3-(cyclohexylcarbamoyl)isothiazolo[5,4-b]pyridin-5-yl]-1,3-benzothiazol-2-yl]carbamate]	3.1 nM
CNC(=O)Nc1nc2ccc(-c3cnc4ccn(C(=O)OC5CCOCC5)c4c3)cc2s1 [Compound C7, tetrahydropyran-4-yl 6-[2-(methylcarbamoylamino)-1,3-benzothiazol-6-yl]pyrrolo[3,2-b]pyridine-1-carboxylate]	32 nM
O=C(NC1CCC(F)(F)CC1)c1csc2ncc(-c3ccc4nc(NC(=O)C5CC5)sc4c3)cc12 [Compound C38, 5-[2-(cyclopropanecarbonylamino)-1,3-benzothiazol-6-yl]-N-(4,4-difluorocyclohexyl)thieno[2,3-b]pyridine-3-carboxamide]	1.8 nM
O=C(Nc1nc2ccc(-c3cnc4ccn(C(=O)NC5CCCCC5)c4c3)cc2s1)C1CC1 [Compound C33, N-cyclohexyl-6-[2-(cyclopropanecarbonylamino)-1,3-benzothiazol-6-yl]pyrrolo[3,2-b]pyridine-1-carboxamide]	4.6 nM
CC(=O)Nc1nc2ccc(-c3cnc4ccn(C(=O)OC5CCCCC5)c4c3)cc2s1 [Compound C1, cyclohexyl 6-(2-acetamido-1,3-benzothiazol-6-yl)pyrrolo[3,2-b]pyridine-1-carboxylate]	43 nM
CNCC(C)OC(=O)n1ccc2ncc(-c3ccc4nc(NC(=O)C5CC5)sc4c3)cc21 (centres unmarked) [Compound C36, [1-methyl-2-(methylamino)ethyl] 6-[2-(cyclopropanecarbonylamino)-1,3-benzothiazol-6-yl]pyrrolo[3,2-b]pyridine-1-carboxylate, hydrochloride salt]	16000 nM
CNC(=O)Nc1nc2ccc(-c3cnc4snc(C(=O)NC5CCCCC5)c4c3)cc2s1 [Compound C27, N-cyclohexyl-5-[2-(methylcarbamoylamino)-1,3-benzothiazol-6-yl]isothiazolo[5,4-b]pyridine-3-carboxamide]	33 nM
CN1CCC(NC(=O)c2nsc3ncc(-c4ccc5nc(NC(=O)C6CC6)sc5c4)cc23)CC1 [Compound C42, 5-(2-(cyclopropanecarboxamido)benzo[d]thiazol-6-yl)-N-(1-methylpiperidin-4-yl)isothiazolo[5,4-b]pyridine-3-carboxamide]	3000 nM
CCOC(=O)Nc1nc2ccc(-c3cnc4ccn(C(=O)OC5CCCCC5)c4c3)cc2s1 [Compound C34, cyclohexyl 6-[2-(ethoxycarbonylamino)-1,3-benzothiazol-6-yl]pyrrolo[3,2-b]pyridine-1-carboxylate]	150 nM
CNCC(C)NC(=O)c1csc2ncc(-c3ccc4nc(NC(=O)C5CC5)sc4c3)cc12 (centres unmarked) [Compound C28, 5-[2-(cyclopropanecarbonylamino)-1,3-benzothiazol-6-yl]-N-[1-methyl-2-(methylamino)ethyl]thieno[2,3-b]pyridine-3-carboxamide]	380 nM
O=C(Nc1cn2cc(-c3cnc4ccn(C(=O)OC5CCCCC5)c4c3)ccc2n1)C1CC1 [Compound C17]	16 nM
CNC(=O)Nc1nc2ccc(-c3cnc4ccn(C(=O)OC5CCCCC5)c4c3)cc2s1 [Compound C16, cyclohexyl 6-[2-(methylcarbamoylamino)-1,3-benzothiazol-6-yl]pyrrolo[3,2-b]pyridine-1-carboxylate]	25 nM
O=C(NC1CCOCC1)c1c[nH]c2ncc(-c3ccc4nc(NC(=O)C5CC5)sc4c3)cc12 [Compound C9, 5-[2-(cyclopropanecarbonylamino)-1,3-benzothiazol-6-yl]-N-tetrahydropyran-4-yl-1H-pyrrolo[2,3-b]pyridine-3-carboxamide]	5200 nM
O=C(NC1CCCCC1)c1csc2ncc(-c3ccc4nc(NC(=O)C5CC5)cn4c3)cc12 [Compound C41, N-cyclohexyl-5-[2-(cyclopropanecarbonylamino)imidazo[1,2-a]pyridin-6-yl]thieno[2,3-b]pyridine-3-carboxamide]	2 nM
O=C(Nc1nc2ccc(-c3cnc4cnn(C(=O)OC5CCOCC5)c4c3)cc2s1)C1CC1 [Compound C11, tetrahydropyran-4-yl 6-[2-(cyclopropanecarbonylamino)-1,3-benzothiazol-6-yl]pyrazolo[4,3-b]pyridine-1-carboxylate]	4100 nM

Compound	IC50
CCC(CC)NC(=O)c1csc2ncc(-c3ccc4nc(NC(=O)C5CC5)sc4c3)cc12 [Compound C37, 5-[2-(cyclopropanecarbonylamino)-1,3-benzothiazol-6-yl]-N-(1-ethylpropyl)thieno[2,3-b]pyridine-3-carboxamide]	3.2 nM
O=C(NC1CCOCC1)c1n[nH]c2ncc(-c3ccc4nc(NC(=O)C5CC5)sc4c3)cc12 [Compound C10, 5-[2-(cyclopropanecarbonylamino)-1,3-benzothiazol-6-yl]-N-tetrahydropyran-4-yl-1H-pyrazolo[3,4-b]pyridine-3-carboxamide]	12000 nM
O=C(Nc1nc2ccc(-c3cnc4ccn(C(=O)NC5CCOCC5)c4c3)cc2s1)C1CC1 [Compound C21, 6-[2-(cyclopropanecarbonylamino)-1,3-benzothiazol-6-yl]-N-tetrahydropyran-4-yl-pyrrolo[3,2-b]pyridine-1-carboxamide]	22 nM
CC(=O)Nc1nc2ccc(-c3cnc4snc(C(=O)NC5CCCCC5)c4c3)cc2s1 [Compound C22, 5-(2-acetamido-1,3-benzothiazol-6-yl)-N-cyclohexyl-isothiazolo[5,4-b]pyridine-3-carboxamide]	35 nM
O=C(Nc1nc2ccc(-c3cnc4ccn(C(=O)CC5CCCCC5)c4c3)cc2s1)C1CC1 [Compound C25, N-[6-[1-(2-cyclohexylacetyl)pyrrolo[3,2-b]pyridin-6-yl]-1,3-benzothiazol-2-yl]cyclopropanecarboxamide]	29 nM
CCOC(=O)Nc1nc2ccc(-c3cnc4scc(C(=O)NC5CCCCC5)c4c3)cc2s1 [Compound C39, ethyl N-[6-[3-(cyclohexylcarbamoyl)thieno[2,3-b]pyridin-5-yl]-1,3-benzothiazol-2-yl]carbamate]	48 nM
O=C(Nc1nc2ccc(-c3cnc4ccn(C(=O)OC5CCCCC5)c4c3)cc2s1)C1CC1 [Compound C15]	7 nM
O=C(NC1CCOCC1)c1cccc2ncc(-c3ccc4nc(NC(=O)C5CC5)sc4c3)cc12 [Compound C13, 3-[2-(cyclopropanecarbonylamino)-1,3-benzothiazol-6-yl]-N-tetrahydropyran-4-yl-quinoline-5-carboxamide]	13000 nM
O=C(NC1CCOCC1)c1nsc2ncc(-c3ccc4nc(NC(=O)C5CC5)cn4c3)cc12 [Compound C35, 5-[2-(cyclopropanecarbonylamino)imidazo[1,2-a]pyridin-6-yl]-N-tetrahydropyran-4-yl-isothiazolo[5,4-b]pyridine-3-carboxamide]	160 nM
CCC(=O)Nc1nc2ccc(-c3cnc4ccn(C(=O)OC5CCCCC5)c4c3)cc2s1 [Compound C26, cyclohexyl 6-[2-(propanoylamino)-1,3-benzothiazol-6-yl]pyrrolo[3,2-b]pyridine-1-carboxylate]	50 nM
CC(=O)Nc1nc2ccc(-c3cnc4scc(C(=O)NC5CCCCC5)c4c3)cc2s1 [Compound C19, 5-(2-acetamido-1,3-benzothiazol-6-yl)-N-cyclohexyl-thieno[2,3-b]pyridine-3-carboxamide]	11 nM
O=C(NC1CCOCC1)c1csc2ncc(-c3ccc4nc(NC(=O)C5CC5)cn4c3)cc12 [Compound C40, 5-[2-(cyclopropanecarbonylamino)imidazo[1,2-a]pyridin-6-yl]-N-tetrahydropyran-4-yl-thieno[2,3-b]pyridine-3-carboxamide]	60 nM
CCC(CC)OC(=O)n1ccc2ncc(-c3ccc4nc(NC(=O)C5CC5)sc4c3)cc21 [Compound C24, 1-ethylpropyl 6-[2-(cyclopropanecarbonylamino)-1,3-benzothiazol-6-yl]pyrrolo[3,2-b]pyridine-1-carboxylate]	33 nM
CCC(CC)NC(=O)c1nsc2ncc(-c3ccc4nc(NC(=O)C5CC5)sc4c3)cc12 [Compound C31, 5-[2-(cyclopropanecarbonylamino)-1,3-benzothiazol-6-yl]-N-(1-ethylpropyl)isothiazolo[5,4-b]pyridine-3-carboxamide]	11 nM
CNCC(C)NC(=O)c1nsc2ncc(-c3ccc4nc(NC(=O)C5CC5)sc4c3)cc12 (centres unmarked) [Compound C32, 5-[2-(cyclopropanecarbonylamino)-1,3-benzothiazol-6-yl]-N-[1-methyl-2-(methylamino)ethyl]isothiazolo[5,4-b]pyridine-3-carboxamide]	1400 nM
CC(=O)Nc1nc2ccc(-c3cnc4ncn(C(=O)OC5CCCCC5)c4c3)cc2s1 [Compound C2, cyclohexyl 6-(2-acetamido-1,3-benzothiazol-6-yl)imidazo[4,5-b]pyridine-1-carboxylate]	11000 nM

The compounds below were run on L929 mouse skin fibroblast cells (assay: Necroptosis inhibition in L929 cell assay (TNF-α/z-VAD induced, cell viability by ATP levels)). Details: Mus musculus, 1 h pre-treatment with compound, then TNF-α 40 ng/mL + z-VAD 20 μM for 48 hours.
Type: cell-based
Method: 2. Compounds Tested for Necroptosis Inhibition Activities in L929 Cell Assay
as §1, with “Mouse L929 mouse skin fibroblast” for “For this assay, HT29”, “TNF-α (40 ng/mL, lab-made)” for “tumor necrosis factor alpha (TNF-α, 40 ng/mL), Smacmimetic (cIAP inhibitor) (100 nM)”, “quantified by detecting adenosine triphosphate (ATP) levels.” for “quantified.”

Compound	IC50
O=C(NC1CCCCC1)c1csc2ncc(-c3ccc4nc(NC(=O)C5CC5)sc4c3)cc12 [Compound C18, N-cyclohexyl-5-[2-(cyclopropanecarbonylamino)-1,3-benzothiazol-6-yl]thieno[2,3-b]pyridine-3-carboxamide]	0.3 nM
O=C(Nc1nc2ccc(-c3cnc4ccn(C(=O)NC5CCCCC5)c4c3)cc2s1)C1CC1 [Compound C33, N-cyclohexyl-6-[2-(cyclopropanecarbonylamino)-1,3-benzothiazol-6-yl]pyrrolo[3,2-b]pyridine-1-carboxamide]	0.3 nM
CN1CCC(NC(=O)c2nsc3ncc(-c4ccc5nc(NC(=O)C6CC6)sc5c4)cc23)CC1 [Compound C42, 5-(2-(cyclopropanecarboxamido)benzo[d]thiazol-6-yl)-N-(1-methylpiperidin-4-yl)isothiazolo[5,4-b]pyridine-3-carboxamide]	321 nM
